Test results published in patent US20050171206A1, “Therapeutical use” (priority 2004, published 2005).
Where “and” joins values, the source holds several entries; their conditions need not be identical. Identical values can stand only once.

Key:
SMN2 genes = conditions: in vitro, cell cultures; cited from earlier work
SMA patients = conditions: published clinical trials; cited from earlier work
[1] = cited from earlier work
[2] = test system: children with SMA II older than 5 years (muscle strength); experiment: Myometry, hand held electronic myometer (Example 2); assay type: in vivo, human; set-up: myometry: unit not given here; conditions: for myometry: individual children
Procedure: (§1) The sodium salt of phenylbutyrate (triButyrate®) was administered orally in powder or tablets at 500 mg/kg/d (maximum dose 19 g/d), divided in 5 doses (every 4 hours except for an 8 hours night interval). An intermittent schedule (7 days on and 7 days off) was arbitrarily chosen, similarly to a previously reported schedule for treatment of sickle cell disease. (Atweh G F, Sutton M, Nassif I, Boosalis V, Dover G J, Wallen-stein S, Wright E, McMahon L, Stamatoyannopoulos G, Faller D V, Perrine S P Blood.1999;93:1790-97.) When this dosage was tolerated, patients were advised to continue for 9 weeks (5 weeks on and 4 weeks off).
(§2) The assessment consisted of a detailed clinical physiotherapy evaluation including the Hammersmith functional motor scale and, in children older than 5 years, assessment of muscle strength and of forced vital capacity.
(§3) Measurements lasted 3 to 5 seconds. The scores were grouped in a leg mega score and arm megascore by adding the best readings for each individual muscle within the subgroup and subdividing this score by the number of muscles examined. Intra-observer variation performed before the implementation of the study was less than 5%. Both myometry and measurement of joint contractures were performed by the same physiotherapist.

SMA patients and parents = experiment: Clinical observations and tolerability, pilot trial (Example 1); assay type: in vivo, human
Procedure: (§4) Six SMA patients (P1-P6) and three parents (M2, M3, F6) were enrolled for a pilot trial. Four patients had SMA type II (P1-P4). P1 is a child who had lost the ability to sit unaided. P3 is […] and P4 and P5 are both […]. Two patients (P5 and P6) had SMA type III. The trial was approved by the Ethical Committee of the Catholic University. A written informed consent was obtained from all patients/parents. triButyrate®, the sodium salt of phenylbutyrate was administered at 500 mg/kg/d (maximum dose 19 g/d), divided in 6 doses(every 4 hours) for 7 days. Blood samples were taken from patients and parents on day 0 (T0, baseline) and on days 1-4 (T1-T4) and 7 (T7) of drug administration, and from 5 healthy untreated controls on 5 consecutive days (T0-T4). Total RNA was extracted by Trizol from leukocytes immediately after hypotonic lysis of samples.
These subjective improvements prompted us to perform myometry in the other four patients on day 0 and 7 (table 1.2).

[3] = test system: SMA patients (muscle strength); experiment: Myometry with hand-held dynamometer, day 0 and day 7 (Example 1); assay type: in vivo, human
Procedure: as §4
Muscle strength was assessed using a hand-held dynamometer (Citec, CIT Technics BV). (Merlini L, Mazzone E S, Solari A, Morandi L. Muscle Nerve 2002; 26:64-70) Patients were tested independently four times by two raters, and the highest measure of the maximal voluntary isometric contraction was selected. Inter-rater coefficients (ICC) were determined as described by Shrout et al. (Shrout P E, Fleiss J L. Pscychol Bull 1979; 86:420-428)
(§5) F of Fisher, ANOVA and T of Student for independent variables tests were performed to assess statistical significance by using Winstat 4.01 and SPSS 10.0.1 for Windows software. P values <0.05 were accepted as significant.

[4] = test system: children with SMA II (motor function); experiment: Hammersmith functional motor scale, open trial in SMA II children (Example 2); assay type: in vivo, human; conditions: for Hammersmith functional scale score, mean: 10 children, baseline mean 13
Excerpt: Thirteen patients with SMA II, all with homozygous absence of SMN1, followed at the Bambino Gesu Hospital or at the UILDM centre in Rome were asked to participate in the present prospective open trial. In order to have a relatively homogeneous cohort of patients who could all be tested on the same scale only children with SMA II between 30 months and 12 years were included. Children younger than 30 months were excluded as the Hammersmith scale can only be reliably and consistently performed and scored after this age. (Main M, Kairon H, Mercuri E, Muntoni F. Eur J Paediatr Neurol. 2003;7:155-59.) Children older than 12 were excluded as after this age several complications, such as severe scoliosis and contractures are more frequent. Children who had been part of other pharmacological trials (e.g. salbutamol, creatine) in the year before the present trial started or who had had corrective surgery for scoliosis were also excluded.
as §1, §2
The scale consists of 20 items, each scored on a 3 point scoring system, (2 for unaided, 1 for assistance and 0 for inability). A total score can be achieved by summing the scores for all the individual items. The score can range from 0, if all the activities are failed, to 40, if all the activities are achieved.
All items have to be tested without thoracic braces or leg orthoses. The scale can be completed in a maximum of 15 minutes. (Main M, Kairon H, Mercuri E, Muntoni F. Eur J Paediatr Neurol. 2003;7:155-59.)
The scale was performed by 2 examiners (MP, SM) and each child was always assessed by the same examiner throughout the 3 assessments. Both observers had training sessions with a senior physiotherapist (MM) and the intra and inter-rater reliability was formally assessed in 5 children before starting the trial. In agreement with the previously reported data on intra and inter-observer reliability, these were >95%. (Main M, Kairon H, Mercuri E, Muntoni F. Eur J Paediatr Neurol. 2003;7:155-59.)
The primary measure of efficacy in this trial was the change from baseline to 3 and 9 weeks in motor function as determined by the Hammersmith motor scale. Secondary measures included the change from baseline to 3 and 9 weeks in myometry scores and in FVC in the children older than 5 years. The primary outcome was analysed using repeated measures ANOVA. Statistical significance was determined at p<0.05. An estimate of SD of change in each of the measures considered is presented with 95% confidence intervals. The number of children older than 5 years who could be reliably assessed for myometry and FVC was too small to allow any meaningful statistical analysis for these measures.

[5] = 200 g per person and day; cited from earlier work
children with SMA II [6] = experiment: Side effects (Example 2); assay type: in vivo, human
Procedure: The sodium salt of phenylbutyrate (triButyrate®) was administered orally in powder or tablets at 500 mg/kg/d (maximum dose 19 g/d), divided in 5 doses (every 4 hours except for an 8 hours night interval). An intermittent schedule (7 days on and 7 days off) was arbitrarily chosen, similarly to a previously reported schedule for treatment of sickle cell disease.

[7] = test system: children with SMA II older than 5 years; experiment: Forced vital capacity by spirometer (Example 2); assay type: in vivo, human; set-up: FVC: unit not given here; conditions: for FVC: individual children
Procedure: as §1, §2
This was measured using a standard spirometer (Spyroanalyser ST-95, Fukuda Sangyo Co, LTD, Philippines) and using the best of three attempts.

[8] = test system: SMN full length (SMN-fl) transcripts (SMN2 gene expression) in leukocytes; experiment: SMN full length transcripts in leukocytes by real-time RT-PCR during one week of oral triButyrate (Example 1); assay type: in vivo, human
Procedure: as §4
SMN full length (SMN-fl) transcripts were measured by realtime RT-PCR using ABI-PRISM 7700 Sequence Detector System (Applied Biosystems) as described elsewhere. (Andreassi C, Angelozzi C, Tiziano F D, Vitali T, De Vincenzi E, Boninsegna A, Villanova M, Bertini E, Pini A, Neri G, Brahe C. Eur. J. Hum. Genet. 2004; 12:59-65) Transcripts were amplified at least twice in triplicate or quadruplicate. SMN transcript levels were calculated by comparing SMN versus glyceraldehyde-3-phosphate dehydrogenase transcripts, whose expression is not affected by triButyrate®. (Andreassi C, Angelozzi C, Tiziano F D, Vitali T, De Vincenzi E, Boninsegna A, Villanova M, Bertini E, Pini A, Neri G, Brahe C. Eur. J. Hum. Genet. 2004; 12:59-65) The relative amounts of SMN-fl transcripts in samples obtained from treated patients/parents and untreated controls were normalized versus those of T0.
as §5

children with SMA II [9] = experiment: Joint contractures (Example 2); assay type: in vivo, human; conditions: between baseline and 9 weeks
Procedure: as §3

[10] = i.v. administration, non-human primates; cited from earlier work
[11] = according to recent publications

O=C(O)CCCc1ccccc1 [PBA, 4-phenylbutyric acid]
SMN protein levels (SMN2 genes): effective in enhancing SMN protein levels
expression of the SMN2 genes (SMN2 genes): effective in increasing the expression of the SMN2 genes
number of SMN containing nuclear structures (SMN2 genes): effective in enhancing

CC(C)(C)NCC(O)c1ccc(O)c(CO)c1 (stereo not shown) [albuterol]
clinical outcome in SMA patients (SMA patients): improvement in clinical symptoms

NCC1(CC(=O)O)CCCCC1 [gabapentin]
clinical outcome in SMA patients (SMA patients): did not show improvement of the symptoms

Nc1nc2ccc(OC(F)(F)F)cc2s1 [riluzole]
clinical outcome in SMA patients (SMA patients): no statistically significant improvement

CCCC(=O)[O-].[Na+] [sodium butyrate]
expression of the SMN2 genes (SMN2 genes): can increase SMN2 gene expression in vitro

O=C([O-])CCCc1ccccc1.[Na+] [triButyrate®, Sodium 4-phenylbutyrate]
metabolised to butyrate [1, 11]: ~25%
metabolised to sodium phenylacetate [1, 11]: approximately 75%
half-life ([1]; in vivo): 48 to 60 min
myometry, patients with increase ([2]; 4 patients older than 5 years): clear increase in 3 of the 4
myometry ([2]; T1, 3 weeks): 0.18 and 0.41 and 0.09 and 0.38
myometry ([2]; T2, 9 weeks): 0.17 and 0.45 and 0.09 and 0.46
adverse events (SMA patients and parents; P6 on day 2 at 18 g/d, resolved after reducing to 12 g/d): dizziness and tinnitus
tolerability (SMA patients and parents; all subjects, 500 mg/kg/d for 7 days): tolerated the drug well except for P6
Full blood counts and liver function tests (SMA patients and parents; all subjects, days 0 and 7): did not show significant changes
head and trunk control (SMA patients and parents; patient P1, severe type II phenotype): slight improvement in head and trunk control
hand tremor (SMA patients and parents; patient P5 (type III), day 3 of treatment, later complete absence lasting 4 days after end of trial): reduction of hand tremor
Foot dorsiflexion ([3]; T7 = day 7, P2, P3, P4 (type II), P6 (type III)): 15 (0.6) Newtons and 9 (0.81) Newtons and 11 (0.81) Newtons and 11 (0.9) Newtons
Arm strength ([3]; patients P3 and P4, less obvious than leg strength): increased
leg muscle strength on day 7 compared to baseline ([3]; three type II patients (P2-4), statistically significant in P3 and P4): increase in leg muscle strength
muscle performance by myometry ([3]; type III case (P6), reduced dosage): no changes in muscle performance
motor function in the treated children ([4]; 9 weeks, 7 days on and 7 days off): significant increase in motor function
children in the study group with an increase in functional scores ([4]; 9 weeks, intermittent regimen): nine out of ten
Hammersmith functional scale score, mean ([4]; T1, 3 weeks after treatment was started): 14.8
Hammersmith functional scale score, mean ([4]; T2, 9 weeks after treatment was started): 17 and 16.6
children with an increase in functional scores of more than 2 points ([4]; of the ten children, 9 weeks): 6
side-effect [5]: increased blood pressure
tolerability (children with SMA II [6]; 500 mg/kg/d oral, intermittent, 9 weeks): generally well tolerated
stomach ache (children with SMA II [6]; after the second dose, did not recur): Three very young children complained of stomach ache
children who found the taste of the drug very unpleasant (children with SMA II [6]; children who completed the trial): Eight of the 10
children who reported an unpleasant odour when sweating (children with SMA II [6]; of the eight who found the taste unpleasant): seven
adverse event leading to discontinuation (children with SMA II [6]; one child, after the second week of treatment started): skin rash
expression of the SMN2 genes (SMN2 genes): can increase SMN2 gene expression in vitro
Forced vital capacity, patients with increase ([7]; 4 patients older than 5 years): clear increase in 3 of the 4
FVC ([7]; T1, 3 weeks): 0.87 and 1.15 and 0.75 and 1.70
FVC ([7]; T2, 9 weeks): 1.18 and 1.23 and 1.22 and 1.74
relative SMN-fl transcript levels during administration compared to baseline ([8]; all patients, one or more blood samples): significant increase
Percent SMN-fl transcripts variation versus T0, T1 mean(+-SD) ([8]; day 1 of 500 mg/kg/d oral, leukocytes, individual patients P1-P6 and parents M2, M3, F6, 500 mg/kg/day): +53 (0.1) % and −1 (0.0) % and +54 (0.2) % and +68 (0.0) % and +65 (0.1) % and +117 (1.0) % and +280 (0.7) % and +73 (0.0) % and +432 (0.2) %
Percent SMN-fl transcripts variation versus T0, T2 mean(+-SD) ([8]; day 2 of 500 mg/kg/d oral, leukocytes, individual patients/parents, 500 mg/kg/day): +184 (0.6) % and +35 (0.3) % and +25 (0.1) % and +14 (0.0) % and −2 (0.0) % and +96 (0.1) % and +27 (0.0) % and +63 (0.1) %
Percent SMN-fl transcripts variation versus T0, T3 mean(+-SD) ([8]; day 3 of 500 mg/kg/d oral, leukocytes, individual patients/parents, 500 mg/kg/day): +7 (0.2) % and +131 (0.5) % and +116 (0.0) % and −37 (0.0) % and +197 (0.7) % and −15 (0.1) % and +21 (0.1) % and +82 (0.2) %
Percent SMN-fl transcripts variation versus T0, T4 mean(+-SD) ([8]; day 4 of 500 mg/kg/d oral, leukocytes, individual patients/parents, 500 mg/kg/day): +120 (0.4) % and −3 (0.0) % and +21 (0.0) % and +156 (0.2) % and +363 (0.6) % and +387 (0.9) % and −18 (0.2) % and +129 (0.3) % and +190 (0.5) %
Percent SMN-fl transcripts variation versus T0, T7 mean(+-SD) ([8]; day 7 of 500 mg/kg/d oral, leukocytes, individual patients/parents, 500 mg/kg/day): +827 (1.9) % and +155 (0.1) % and −15 (0.4) % and +190 (0.2) % and +71 (0.3) % and +333 (0.5) % and +56 (0.2) %
increase in SMN-fl transcripts in at least one blood sample during treatment ([8]; in all patients): more than 100%
major joint's ranges (hips, knees, hamstrings, tendon Achilles and elbows) (children with SMA II [9]): no difference
penetration into the cerebrospinal fluid (CSF) [10]: penetrates into the cerebrospinal fluid
